From patent US20210315837A1, “CANNABINOIDS FOR THE TREATMENT OF GRAM-POSITIVE INFECTIONS INCLUDING ANTIBIOTIC-RESISTANT BACTERIAL STRAINS” (priority 2018, published 2021)
≈ marks a conversion by molar mass, not a printed value. Where “and” joins values, the source holds several entries; their conditions need not be identical. Identical values can stand only once. Like-named read-outs stand apart in the source and are kept apart here.

Experiments:
MRS USA 300 = assay: IC50, MIC and MBC against MRS USA 300; format: cell-based, Staphylococcus aureus
Procedure: (§1) As used herein, the term “minimum inhibitory concentration (MIC)” refers to the lowest concentration of an antimicrobial agent that will inhibit the visible growth of a microorganism after overnight incubation. MIC values against bacteria may be determined by standard methods. See also P. A. Wayne, Methods for Dilution Antimicrobial Tests for Bacteria that Grow Aerobically; Approved Standard, Ninth Edition, 2012, CLSI Document M07-A9, Vol. 32 No. 2, which is incorporated by reference herein in its entirety.

MRS 33591 = assay: IC50, MIC and MBC against MRS 33591; format: cell-based, Staphylococcus aureus
Procedure: as §1

S. aureus 29213 = assay: IC50, MIC and MBC against S. aureus 29213; format: cell-based
Procedure: As used herein, the term “minimum inhibitory concentration (MIC)” refers to the lowest concentration of an antimicrobial agent that will inhibit the visible growth of a microorganism after overnight incubation. MIC values against bacteria may be determined by standard methods.

[1] = test system: MRS 1708 (Mupirocin-resistant); assay: IC50, MIC and MBC against MRS 1708 (Mupirocin-resistant); format: cell-based, Staphylococcus aureus; parameters: AMC: unit not given here
Procedure: as §1

MRS USA 400 = assay: IC50, MIC and MBC against MRS USA 400; format: cell-based, Staphylococcus aureus
Procedure: as §1

[2] = MRS USA 300, tested Conc. in μg/mL
[3] = MRS 33591, tested Conc. in μg/mL
[4] = S. aureus 29213, tested Conc. in μg/mL
[5] = Mupirocin-resistant MRS (Table 11)
[6] = Mupirocin-resistant MRS (Table 11), in µg/mL
[7] = MRS USA 400, tested Conc. in μg/mL
[8] = S. aureus 29213, tested Conc. in μg/mL, NA given without definition
[9] = Staphylococcus aureus, S. aureus 29213, tested Conc. in μg/mL, read-out: MIC

Molecule | MIC (MRS USA 300; [2]) | IC50 (MRS USA 300; Staphylococcus aureus, USA300) | MBC (MRS 33591; [3]) | IC50 (MRS 33591; Staphylococcus aureus) | MIC (MRS 33591; Staphylococcus aureus) | IC50 (S. aureus 29213; Staphylococcus aureus, 29213) [µg/mL] | IC50 (MRS USA 300; [2]) | AMC [1, 5] | IC50 [1, 6] | IC50 (MRS 33591; [3]) | MIC (MRS 33591; [3]) | IC50 (MRS USA 400; [7]) | MIC (MRS USA 400; [7]) | MIC (S. aureus 29213; [4]) | IC50 (S. aureus 29213; [8]) | IC50 ([1]; Staphylococcus aureus) | IC50 (MRS USA 400; Staphylococcus aureus, USA400) | also measured
O=C(O)c1cn(C2CC2)c2cc(N3CCNCC3)c(F)cc2c1=O [Ciprofloxacin, reference compound] | 0.5 ± 0 | 0.13 µg/mL | 0.67 | 0.12 µg/mL | 0.67 µg/mL | 0.12 (≈ 0.362 µM) |  |  |  |  |  |  |  |  |  |  |  | MBC (MRS USA 300; [2]): 0.67; MBC (S. aureus 29213; [4]): 0.67; MIC (S. aureus 29213; Staphylococcus aureus, 29213): 0.5 µg/mL (≈ 1.51 µM)
CCCCCc1cc(O)c(C/C=C(\C)CCC2OC2(C)C)c(O)c1 (stereo not drawn) [6,7-Epoxycannabigerol] | 20 ± 0 |  |  |  |  |  | 7.53 | 20 ± 0 | 7.74 ± 1.17 | 6.73 | 13.33 | 8.67 | 20 ± 0 | 16.67 | 5.83 |  |  | 
C/C(=C\C(=O)OCCCCCCCCC(=O)O)C[C@@H]1OC[C@H](C[C@@H]2O[C@H]2[C@@H](C)[C@H](C)O)[C@@H](O)[C@H]1O [Mupirocin, reference compound] | 0.23 | 80 nM and 0.04 µg/mL | 2.08 | 80 nM and 0.04 µg/mL | 0.44 µM and 0.22 µg/mL | 0.04 (≈ 0.0799 µM) |  |  |  |  |  |  | 0.16 ± 0 |  |  | > 100000 nM | 80 nM and 0.04 µg/mL | MBC (MRS USA 300; Staphylococcus aureus, USA300): 3.76 ± 1.76 µM (≈ 1.88 µg/mL); MIC (MRS USA 300; Staphylococcus aureus, USA300): 0.46 ± 0.22 µM (≈ 0.23 µg/mL); MBC ([1]; Staphylococcus aureus): > 100 µM; MIC ([1]; Staphylococcus aureus): > 100 µM; MBC (MRS 33591; Staphylococcus aureus): 4.15 ± 2.6 µM (≈ 2.08 µg/mL); MBC (MRS USA 400; [7]): 0.94 ± 0.44; MBC (MRS USA 400; Staphylococcus aureus, USA400): 1.88 ± 0.88 µM (≈ 0.941 µg/mL); MIC (MRS USA 400; Staphylococcus aureus, USA400): 0.32 µM (≈ 0.16 µg/mL); MBC (S. aureus 29213; [4]): 1.25 ± 0; MIC (S. aureus 29213; [9]): 0.39 µg/mL (≈ 0.779 µM)
COc1cccc(OC)c1C(=O)N[C@@H]1C(=O)N2[C@@H]1SC(C)(C)[C@@H]2C(=O)O [Methicillin, reference compound] |  | 70.2 µM and 26.7 µg/mL |  | > 131000 nM | > 131 µM | 0.65 (≈ 1.71 µM) |  | 25 ± 0 |  |  |  |  | 25 ± 0 |  |  | 7.31 µM and 2.78 µg/mL | 8.78 µM and 3.34 µg/mL | MBC (MRS USA 300; Staphylococcus aureus, USA300): > 131 µM; MIC (MRS USA 300; Staphylococcus aureus, USA300): > 131 µM; MBC ([1]; Staphylococcus aureus): 65.7 µM (≈ 25 µg/mL); MIC ([1]; Staphylococcus aureus): 65.7 µM (≈ 25 µg/mL); MBC (MRS 33591; Staphylococcus aureus): > 131 µM; MBC (MRS USA 400; [7]): 41.67; MBC (MRS USA 400; Staphylococcus aureus, USA400): 110 ± 37.9 µM (≈ 41.7 µg/mL); MIC (MRS USA 400; Staphylococcus aureus, USA400): 65.7 µM (≈ 25 µg/mL); MIC (S. aureus 29213; Staphylococcus aureus, 29213): 2.6 ± 0.9 µg/mL (≈ 6.83 µM)
Methyl tetrahydrocannabigerol |  |  |  |  |  |  | 1.76 and 1.26 | 8.33 ± 2.89 |  | 1.83 and 1.39 |  | 1.91 and 1.42 |  |  | 1.8 and 1.53 |  |  | MBC (S. aureus 29213; [4]): 10 ± 0
C=C(C)[C@@H]1CC[C@](C)(O)[C@H]2Oc3cc(CCCCC)cc(O)c3[C@@H]12 [Cannabielsoin] | 10 ± 0 |  |  |  |  |  | 5.49 | 20 ± 0 | 6.03 ± 0.49 | 6.26 | 10 ± 0 | 6.03 | 10 ± 0 | 10 ± 0 | 6.15 |  |  | MBC (MRS USA 300; [2]): 20 ± 0
CCCCCc1cc(O)c(CCC(C)CCCC(C)C)c(O)c1 (stereo not drawn) [Tetrahydro CBG, Tetrahydrocannabigerol] | 2.08 |  | 3.75 |  |  |  | 0.82 ± 0.1 | 3.33 ± 1.44 | 0.83 ± 0.2 | 0.67 ± 0 | 1.25 ± 0 | 1.12 | 2.5 ± 0 | 1.25 ± 0 | 0.7 |  |  | MBC (MRS USA 300; MRS USA 300): >62 µM; MIC (MRS USA 300; MRS USA 300): 6.49 ± 2.25 µM (≈ 2.08 µg/mL); IC50 (MRS USA 300; MRS USA 300, read-out: IC50): 2560 ± 310 nM; MBC ([1]; MRS 1708 (Mupirocin-resistant)): 10.39 ± 4.49 µM (≈ 3.33 µg/mL); MIC ([1]; MRS 1708 (Mupirocin-resistant)): 5.21 ± 2.25 µM (≈ 1.67 µg/mL); IC50 ([1]; MRS 1708 (Mupirocin-resistant), read-out: IC50): 2590 ± 620 nM; MBC (MRS 33591; MRS 33591): 11.7 ± 5.52 µM (≈ 3.75 µg/mL); MIC (MRS 33591; MRS 33591): 3.9 ± 0 µM; IC50 (MRS 33591; MRS 33591, read-out: IC50): 2090 nM; MBC (MRS USA 400; MRS USA 400): 31.2 ± 0 µM (≈ 10 µg/mL); MIC (MRS USA 400; MRS USA 400): 7.8 ± 0 µM (≈ 2.5 µg/mL); IC50 (MRS USA 400; MRS USA 400, read-out: IC50): 3490 ± 500 nM; MBC (MRS USA 400; [7]): 10 ± 0
C=C(C)[C@@H]1CCC(C)=C[C@H]1c1c(O)cc(CCCCC)c(C(=O)O)c1O [Cannabidiolic acid] | 20 ± 0 | 6.11 µg/mL |  | 7.27 µg/mL | 20 µg/mL | 6.83 (≈ 19.1 µM) |  |  |  |  |  |  | 13.33 |  |  | 5.57 ± 0.68 µg/mL | 4.99 µg/mL | MIC (S. aureus 29213; [9]): 16.7 µg/mL (≈ 46.5 µM)
CCCCCc1cc(O)c2c(c1)OC(C)(C)[C@@H]1CC=C(C)C[C@@H]21 [Δ8-Tetrahydrocannabinol] | 5 ± 0 |  | 10 ± 0 |  |  |  | 1.91 | 10 ± 8.66 | 1.82 ± 0.08 | 1.43 | 2.5 ± 0 | 2.55 | 10 ± 0 | 2.5 ± 0 | 1.47 |  |  | 
Tetrahydrocannabigerolic acid | 20 ± 0 |  |  |  |  |  | 2.98 |  | 3.24 ± 0.13 | 4.33 | 20 ± 0 | 2.79 | 13.33 | 20 ± 0 | 3.67 |  |  | 
CCCCCc1cc(O)c2c(c1)OC(C)(CCC=C(C)C)C=C2 (stereo not drawn) [Cannabichromene] |  | 6.44 µg/mL |  | 2.58 µg/mL | 5 µg/mL | 6.96 (≈ 22.1 µM) |  |  |  |  |  |  |  |  |  | 5.04 ± 0.55 µg/mL | 7.28 µg/mL | 
CC(C)=CCC/C(C)=C\Cc1c(O)cc(C)cc1O [(Z)-Cannabigerorcin] | 16.67 |  |  |  |  |  | 6.46 |  | 6.93 ± 1.54 | 9.48 | 20 ± 0 | 7.27 | 13.33 | 16.67 | 8.12 |  |  | 
CC(C)=CCCC1(C)C=Cc2c(O)cc(C)cc2O1 (stereo not drawn) [Cannabichromeorcin] | 10 ± 0 |  | 20 ± 0 |  |  |  | 5.41 | 13.33 ± 5.77 | 5.57 ± 0.27 | 5.56 | 10 ± 0 | 5.9 | 10 ± 0 | 10 ± 0 | 6.94 |  |  | MBC (MRS USA 300; [2]): 13.33; MBC (MRS USA 400; [7]): 20 ± 0
CCCCCc1cc(O)c2c(c1)OC(C)(C)c1cc(O)c(C)cc1-2 [8-Hydroxycannabinol] | 5 ± 0 |  |  |  |  |  | 1.58 |  | 2.15 ± 0.22 | 2.33 | 5 ± 0 | 1.82 | 5 ± 0 | 5 ± 0 | 1.2 |  |  | 
CCCCCc1cc(O)c(C/C=C(\C)CCC=C(C)C)c(O)c1C(=O)O [Cannabigerolic acid] | 8.33 | 1.52 µg/mL |  | 2.29 µg/mL | 13.3 µg/mL | 2.05 (≈ 5.69 µM) |  |  |  |  |  |  | 5 ± 0 |  |  | 1.55 ± 0.27 µg/mL | 1.67 µg/mL | MIC (S. aureus 29213; [9]): 8.33 µg/mL (≈ 23.1 µM)
